Experimental data as given in publication PMC9276671, “A first-in-human Phase I dose-escalation trial of the novel therapeutic peptide, ALM201, demonstrates a favourable safety profile in unselected patients with ovarian cancer and other advanced solid tumours” (British Journal of Cancer, 2022).
No end group written: not given here.

Experiment: Plasma pharmacokinetics of ALM201 in Phase I patients (validated LC-MS/MS, Phoenix WinNonlin)
Details: human, plasma, sc; for Tmax: median; for Tmax / AUC(0-t) / Cmax: plasma LC-MS/MS; for AUC(0-t): AUC0-t; for AUC(0-t) / Cmax: Gmean (CV)
[1] = 300 mg, 300 mg SC, day 1 cycle 1, n = 3
[2] = 300 mg, 300 mg SC, day 3 cycle 1, n = 3
[3] = 300 mg, 300 mg SC, day 18 cycle 2, n = 3
[4] = 300 mg, 300 mg SC, day 18 cycle 4, n = 1
[5] = 300 mg, 300 mg SC, day 18 cycle 6, n = 1

In the case of IRQQPRDPPTETLELEVSPDPAS [ALM201], the level at 6 h (200 mg, Plasma concentration, geometric mean (CV%), 200 mg SC, day 1 cycle 1, 6 h after dosing, n = 4, LC-MS/MS) is reported as 518 ng/mL, the level at 0.5 h (200 mg, Plasma concentration, geometric mean (CV%), 200 mg SC, day 3 cycle 1, 0.5 h after dosing, n = 4, LC-MS/MS) is reported as 1090 ng/mL and the level at 1 h (200 mg, Plasma concentration, geometric mean (CV%), 200 mg SC, day 3 cycle 1, 1 h after dosing, n = 3, LC-MS/MS) is reported as 1410 ng/mL. For the same sequence, the level at 1.5 h (200 mg, Plasma concentration, geometric mean (CV%), 200 mg SC, day 3 cycle 1, 1.5 h after dosing, n = 4, LC-MS/MS) was 1320 ng/mL, the level at 2 h (200 mg, Plasma concentration, geometric mean (CV%), 200 mg SC, day 3 cycle 1, 2 h after dosing, n = 4, LC-MS/MS) was 1540 ng/mL and the level at 3.5 h (200 mg, Plasma concentration, geometric mean (CV%), 200 mg SC, day 3 cycle 1, 3.5 h after dosing, n = 4, LC-MS/MS) was 1250 ng/mL. The level at 5 h (200 mg, Plasma concentration, geometric mean (CV%), 200 mg SC, day 3 cycle 1, 5 h after dosing, n = 4, LC-MS/MS) was 958 ng/mL, the level at 0.5 h (200 mg, Plasma concentration, geometric mean (CV%), 200 mg SC, day 18 cycle 1, 0.5 h after dosing, n = 3, LC-MS/MS) was 811 ng/mL and the level at 1 h (200 mg, Plasma concentration, geometric mean (CV%), 200 mg SC, day 18 cycle 1, 1 h after dosing, n = 3, LC-MS/MS) was 1260 ng/mL. The level at 1.5 h (200 mg, Plasma concentration, geometric mean (CV%), 200 mg SC, day 18 cycle 1, 1.5 h after dosing, n = 2 values (CV NC), LC-MS/MS) was 1670 ng/mL, the level at 2 h (200 mg, Plasma concentration, geometric mean (CV%), 200 mg SC, day 18 cycle 1, 2 h after dosing, n = 2 values (CV NC), LC-MS/MS) was 1580 ng/mL and the level at 3.5 h (200 mg, Plasma concentration, geometric mean (CV%), 200 mg SC, day 18 cycle 1, 3.5 h after dosing, n = 3, LC-MS/MS) was 1130 ng/mL. It also gave a level at 5 h (200 mg, Plasma concentration, geometric mean (CV%), 200 mg SC, day 18 cycle 1, 5 h after dosing, n = 3, LC-MS/MS) of 890 ng/mL, a level at 0.5 h (200 mg, Plasma concentration, geometric mean (CV%), 200 mg SC, day 18 cycle 2, 0.5 h after dosing, n = 2, LC-MS/MS) of 1210 ng/mL and a level at 1 h (200 mg, Plasma concentration, geometric mean (CV%), 200 mg SC, day 18 cycle 2, 1 h after dosing, n = 2, LC-MS/MS) of 1470 ng/mL. For the same sequence, the level at 1.5 h (200 mg, Plasma concentration, geometric mean (CV%), 200 mg SC, day 18 cycle 2, 1.5 h after dosing, n = 2, LC-MS/MS) was 1890 ng/mL, the level at 2 h (200 mg, Plasma concentration, geometric mean (CV%), 200 mg SC, day 18 cycle 2, 2 h after dosing, n = 2, LC-MS/MS) was 1360 ng/mL and the level at 3.5 h (200 mg, Plasma concentration, geometric mean (CV%), 200 mg SC, day 18 cycle 2, 3.5 h after dosing, n = 2, LC-MS/MS) was 911 ng/mL. For the same sequence, the level at 5 h (200 mg, Plasma concentration, geometric mean (CV%), 200 mg SC, day 18 cycle 2, 5 h after dosing, n = 2, LC-MS/MS) was 690 ng/mL, the level at 0.5 h (200 mg, Plasma concentration, geometric mean (CV%), 200 mg SC, day 18 cycle 4, 0.5 h after dosing, n = 2, LC-MS/MS) was 1080 ng/mL and the level at 1 h (200 mg, Plasma concentration, geometric mean (CV%), 200 mg SC, day 18 cycle 4, 1 h after dosing, n = 2, LC-MS/MS) was 1410 ng/mL. It also gave a level at 1.5 h (200 mg, Plasma concentration, geometric mean (CV%), 200 mg SC, day 18 cycle 4, 1.5 h after dosing, n = 2, LC-MS/MS) of 1150 ng/mL, a level at 2 h (200 mg, Plasma concentration, geometric mean (CV%), 200 mg SC, day 18 cycle 4, 2 h after dosing, n = 2, LC-MS/MS) of 1500 ng/mL and a level at 3.5 h (200 mg, Plasma concentration, geometric mean (CV%), 200 mg SC, day 18 cycle 4, 3.5 h after dosing, n = 2, LC-MS/MS) of 1310 ng/mL. For the same sequence, the level at 5 h (200 mg, Plasma concentration, geometric mean (CV%), 200 mg SC, day 18 cycle 4, 5 h after dosing, n = 2, LC-MS/MS) was 975 ng/mL, the Tmax (200 mg, 200 mg SC, day 1 cycle 1, n = 4) was 2.5 h and the Tmax (200 mg, 200 mg SC, day 3 cycle 1, n = 4) was 2 h. For the same sequence, the Tmax (200 mg, 200 mg SC, day 18 cycle 1, n = 3) was 2.03 h, the Tmax (200 mg, 200 mg SC, day 18 cycle 2, n = 2) was 1.54 h and the Tmax (200 mg, 200 mg SC, day 18 cycle 4, n = 2) was 1.57 h. It also gave an AUC(0-t) [1] of 11900 ng·h/mL, an AUC(0-t) [2] of 12500 ng·h/mL and an AUC(0-t) [3] of 10400 ng·h/mL. It also gave an AUC(0-t) [4] of 8600 ng·h/mL, an AUC(0-t) [5] of 26700 ng·h/mL and a Cmax [1] of 2550 ng/mL. It also gave a Cmax [2] of 2690 ng/mL, a Cmax (300 mg, 300 mg SC, day 18 cycle 1, n = 3) of 2880 ng/mL and a Cmax [3] of 2780 ng/mL. It also gave a Cmax [4] of 2140 ng/mL, a Cmax [5] of 6830 ng/mL and a level at 0.25 h (300 mg, Plasma concentration, geometric mean (CV%), 300 mg SC, day 1 cycle 1, 0.25 h after dosing, n = 3, LC-MS/MS) of 1050 ng/mL. The level at 0.75 h (300 mg, Plasma concentration, geometric mean (CV%), 300 mg SC, day 1 cycle 1, 0.75 h after dosing, n = 3, LC-MS/MS) was 1970 ng/mL and the level at 1.5 h (300 mg, Plasma concentration, geometric mean (CV%), 300 mg SC, day 1 cycle 1, 1.5 h after dosing, n = 3, LC-MS/MS) was 2250 ng/mL.
